The results in this text go back to ChEMBL document CHEMBL4417631, “Oral peptide inhibitors of interleukin-23 receptor and their use to treat inflammatory bowel diseases” (2017).

The IC50 is the concentration needed to halve the response being measured. Low readings indicate higher potency, high ones lower potency.

Where a SMILES comes first, the peptide text is derived from it. [ ]: non-standard residue; d: D form. hLeu = CC(C)CC[C@H](N)C(=O)O

The target of this test is T1, Interleukin-23 receptor (Homo sapiens, UniProt Q5VWK5).
T1 sequence (Q5VWK5 whole entry): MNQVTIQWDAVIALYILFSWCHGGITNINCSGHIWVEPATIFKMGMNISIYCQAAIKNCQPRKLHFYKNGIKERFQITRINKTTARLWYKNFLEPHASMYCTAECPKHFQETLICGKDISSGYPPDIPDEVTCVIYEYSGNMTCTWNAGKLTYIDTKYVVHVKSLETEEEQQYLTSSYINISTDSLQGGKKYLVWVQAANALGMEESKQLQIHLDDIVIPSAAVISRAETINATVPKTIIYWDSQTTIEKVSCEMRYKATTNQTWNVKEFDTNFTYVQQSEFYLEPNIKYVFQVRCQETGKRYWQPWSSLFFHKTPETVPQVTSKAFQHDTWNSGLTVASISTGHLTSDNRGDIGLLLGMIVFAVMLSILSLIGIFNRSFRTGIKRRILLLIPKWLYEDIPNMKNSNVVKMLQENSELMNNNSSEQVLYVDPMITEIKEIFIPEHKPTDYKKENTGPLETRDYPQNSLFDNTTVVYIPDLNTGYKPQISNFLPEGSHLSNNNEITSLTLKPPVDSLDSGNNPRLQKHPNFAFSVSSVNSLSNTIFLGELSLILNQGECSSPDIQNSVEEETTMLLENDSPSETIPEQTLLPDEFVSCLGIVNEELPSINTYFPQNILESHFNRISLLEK
Briefly: Inhibition of interleukin-23 binding to human interleukin-23 receptor incubated for 2 hrs by competitive binding ELISA. On the technique in general: In an ELISA, binding on a coated surface is turned into a signal by an enzyme label.
Take `N=C(N)NCCC[C@H](NC(=O)[C@H](Cc1c[nH]c2ccccc12)NC(=O)[C@H](Cc1ccc(O)cc1)NC(=O)[C@@H]1CCSCc2ccc(cc2)C(=O)N[C@@H](CCC(N)=O)C(=O)N[C@@H](CC(=O)O)C(=O)N[C@@H](Cc2c[nH]c3ccccc23)C(=O)N[C@@H](CCC(N)=O)C(=O)N1)C(=O)N[C@@H](CCC(=O)O)C(=O)N[C@@H](CC(N)=O)C(=O)NCC(=O)NCCOCC(=O)N[C@H](CCCCN)C(N)=O`: the IC50 was > 30000 nM.

In the case of `CC(=O)N[C@@H](CS)C(=O)N[C@@H](C)C(=O)N[C@@H](CC(=O)O)C(=O)N[C@@H](Cc1c[nH]c2ccccc12)C(=O)N[C@H](C(=O)N[C@@H](CS)C(=O)N[C@@H](Cc1ccc(O)cc1)C(=O)N[C@@H](Cc1c[nH]c2ccccc12)C(=O)N[C@@H](Cc1cnc[nH]1)C(=O)N[C@H](C(=O)N[C@@H](Cc1ccccc1)C(=O)NCC(=O)NCCOCCC(=O)N[C@H](CCCNC(=N)N)C(=O)O)[C@@H](C)O)C(C)C`, the IC50 was < 500 nM.

In the case of `CC(=O)N[C@@H](CS)C(=O)N[C@@H](C)C(=O)N[C@@H](CC(=O)O)C(=O)N[C@@H](Cc1c[nH]c2ccccc12)C(=O)N[C@H](C(=O)N[C@@H](CS)C(=O)N[C@@H](Cc1ccc(O)cc1)C(=O)N[C@@H](Cc1c[nH]c2ccccc12)C(=O)N[C@@H](Cc1cnc[nH]1)C(=O)N[C@@H](CCCCNC(=O)COCC(=O)NCCCC[C@H](NC(=O)[C@H](Cc1cnc[nH]1)NC(=O)[C@H](Cc1c[nH]c2ccccc12)NC(=O)[C@H](Cc1ccc(O)cc1)NC(=O)[C@H](CS)NC(=O)[C@@H](NC(=O)[C@H](Cc1c[nH]c2ccccc12)NC(=O)[C@H](CC(=O)O)NC(=O)[C@H](C)NC(=O)[C@H](CS)NC(C)=O)C(C)C)C(=O)N[C@@H](Cc1ccccc1)C(=O)NCC(=O)O)C(=O)N[C@@H](Cc1ccccc1)C(=O)NCC(=O)O)C(C)C`, the concentration for half-maximal inhibition (IC50) was > 10000 nM.

Turning to `CC(=O)N[C@@H](CS)C(=O)N[C@@H](CCC(N)=O)C(=O)N[C@H](C(=O)N[C@@H](Cc1c[nH]c2ccccc12)C(=O)N[C@@H](CCC(N)=O)C(=O)N[C@@H](CS)C(=O)N[C@@H](Cc1ccc(O)cc1)C(=O)N[C@@H](Cc1c[nH]c2ccccc12)C(=O)N1CCC[C@@H]1C(=O)N[C@@H](CCC(=O)O)C(=O)N[C@@H](CC(N)=O)C(=O)NCC(N)=O)[C@@H](C)O`, the IC50 is > 30000 nM.

For the molecule `CC(C)[C@H](NC(=O)[C@H](Cc1c[nH]c2ccccc12)NC(=O)[C@H](CC(=O)O)NC(=O)[C@H](C)NC(=O)[C@@H](N)CS)C(=O)N[C@@H](CS)C(=O)N[C@@H](Cc1ccc(O)cc1)C(=O)N1Cc2ccccc2C[C@H]1C(=O)N[C@@H](Cc1cnc[nH]1)C(=O)N[C@H](C(=O)N[C@@H](Cc1ccccc1)C(=O)NCC(N)=O)[C@@H](C)O`, the concentration for half-maximal inhibition (IC50) is > 1000 nM.

Take `CC(C)[C@H](NC(=O)[C@H](Cc1cnc[nH]1)NC(=O)[C@H](Cc1c[nH]c2ccccc12)NC(=O)[C@H](Cc1ccc(O)cc1)NC(=O)[C@H](CS)NC(=O)[C@@H](NC(=O)[C@H](Cc1c[nH]c2ccccc12)NC(=O)[C@@H](NC(=O)[C@H](CCCNC(=N)N)NC(=O)[C@@H](N)CS)[C@@H](C)O)C(C)C)C(=O)N[C@@H](Cc1ccccc1)C(=O)NCC(N)=O` (H-CRTWVCYWHVFG-NH2): the concentration for half-maximal inhibition (IC50) was > 1000 nM.

For the molecule `CC(=O)N[C@@H](CS)C(=O)N[C@@H](C)C(=O)N[C@@H](CC(=O)O)C(=O)N[C@@H](Cc1c[nH]c2ccccc12)C(=O)N[C@H](C(=O)N[C@@H](CS)C(=O)N[C@@H](Cc1ccc(O)cc1)C(=O)N[C@@H](Cc1c[nH]c2ccccc12)C(=O)N[C@@H](Cc1cnc[nH]1)C(=O)N[C@H](C(=O)N[C@@H](Cc1cnc[nH]1)C(=O)NCC(=O)N[C@@H](CCC(=O)O)C(=O)N[C@@H](CCCNC(=N)N)C(N)=O)[C@@H](C)O)C(C)C`, the half-inhibitory concentration (IC50) is < 500 nM.

As for `CC(=O)N[C@@H](CS)C(=O)N[C@@H](C)C(=O)N[C@@H](CC(=O)O)C(=O)N[C@@H](Cc1c[nH]c2ccccc12)C(=O)N[C@H](C(=O)N[C@@H](CS)C(=O)N[C@@H](Cc1ccc(O)cc1)C(=O)N[C@@H](Cc1c[nH]c2ccccc12)C(=O)N[C@@H](CCCCN)C(=O)N[C@H](C(=O)N[C@@H](Cc1ccccc1)C(=O)NCC(=O)O)[C@@H](C)O)C(C)C`, the IC50 is > 1000 nM.

As to `CC(=O)N[C@@H](CS)C(=O)N[C@@H](CCC(N)=O)C(=O)N[C@H](C(=O)NCC(=O)N[C@@H](CCC(N)=O)C(=O)N[C@@H](CS)C(=O)N[C@@H](Cc1ccc(O)cc1)C(=O)N[C@@H](Cc1c[nH]c2ccccc12)C(=O)N[C@@H](CCC(C)C)C(=O)N[C@@H](CCC(=O)O)C(=O)N[C@@H](CC(N)=O)C(=O)NCC(N)=O)[C@@H](C)O` (Ac-CQTGQCYW[hLeu]ENG-NH2), the 50% inhibitory concentration (IC50) was > 10000 nM.

Regarding `CC(C)[C@H](NC(=O)[C@H](Cc1cnc[nH]1)NC(=O)[C@H](Cc1c[nH]c2ccccc12)NC(=O)[C@H](Cc1ccc(O)cc1)NC(=O)[C@H](CS)NC(=O)[C@H](CCC(=O)O)NC(=O)[C@H](Cc1c[nH]c2ccccc12)NC(=O)[C@H](CC(N)=O)NC(=O)CNC(=O)[C@@H](N)CS)C(=O)N[C@@H](Cc1ccc(O)cc1)C(=O)NCC(N)=O` (H-CGNWECYWHVYG-NH2), the IC50 was > 1000 nM.

The molecule `COc1ccc(C[C@H](NC(=O)[C@@H](NC(=O)[C@H](CCC(N)=O)NC(=O)[C@H](Cc2c[nH]c3ccccc23)NC(=O)[C@@H](NC(=O)[C@H](CCC(N)=O)NC(=O)[C@@H](NC(=O)Cc2ccc(-c3ccccc3)cc2)C(C)(C)S)[C@@H](C)O)C(C)(C)S)C(=O)N[C@@H](Cc2ccc3ccccc3c2)C(=O)N[C@@](C)(CCCCN)C(=O)N[C@@H](CCCCNC(C)=O)C(=O)N[C@@H](CC(N)=O)C(=O)NCC(N)=O)cc1` gave a half-inhibitory concentration (IC50) of 100 to 1000 nM.

As to `CSCC[C@H](NC(=O)[C@@H](N)CS)C(=O)N[C@H](C(=O)N[C@@H](Cc1c[nH]c2ccccc12)C(=O)N[C@@H](CCC(N)=O)C(=O)N[C@@H](CS)C(=O)N[C@@H](Cc1ccc(O)cc1)C(=O)N[C@@H](Cc1c[nH]c2ccccc12)C(=O)N[C@@H](CC(C)C)C(=O)N[C@@H](Cc1ccc(O)cc1)C(=O)NCC(=O)N[C@@H](CCCNC(=N)N)C(=O)NCCOCC(=O)N[C@H](CCCCN)C(N)=O)[C@@H](C)O`, the IC50 is > 30000 nM.

With `CC(C)[C@H](NC(=O)[C@H](Cc1c[nH]c2ccccc12)NC(=O)[C@H](CC(N)=O)NC(=O)[C@H](CO)NC(=O)[C@@H](N)CS)C(=O)N[C@@H](CS)C(=O)N[C@@H](Cc1ccc(O)cc1)C(=O)N[C@@H](Cc1c[nH]c2ccccc12)C(=O)N[C@@H](Cc1cnc[nH]1)C(=O)N[C@H](C(=O)N[C@@H](Cc1ccc(O)cc1)C(=O)NCC(N)=O)[C@@H](C)O` (H-CSNWVCYWHTYG-NH2), the 50% inhibitory concentration (IC50) is < 500 nM.

On to `CC(=O)N[C@@H](CS)C(=O)N[C@@H](CCC(N)=O)C(=O)N[C@H](C(=O)N[C@@H](Cc1c[nH]c2ccccc12)C(=O)N[C@@H](CCC(N)=O)C(=O)N[C@@H](CS)C(=O)N(C)[C@@H](Cc1ccc(O)cc1)C(=O)N[C@@H](Cc1c[nH]c2ccccc12)C(=O)N[C@@H](CCC(C)C)C(=O)N[C@@H](CCC(=O)O)C(=O)N[C@@H](CC(N)=O)C(=O)NCC(N)=O)[C@@H](C)O`, for which the IC50 was > 30000 nM.

In the case of `CC(=O)N[C@@H](CS)C(=O)N[C@@H](CCCNC(=N)N)C(=O)N[C@H](C(=O)N[C@@H](Cc1c[nH]c2ccccc12)C(=O)N[C@@H](CCC(N)=O)C(=O)N[C@@H](CS)C(N)=O)[C@@H](C)O` (Ac-CRTWQC-NH2), the IC50 was > 30000 nM.

Consider `CC(C)[C@H](NC(=O)[C@H](Cc1c[nH]c2ccccc12)NC(=O)[C@H](CC(=O)O)NC(=O)[C@H](C)NC(=O)[C@@H](N)CS)C(=O)N[C@@H](CS)C(=O)N[C@@H](Cc1ccc(O)cc1)C(=O)N[C@@H](Cc1c[nH]c2ccccc12)C(=O)N[C@@H](Cc1cnc[nH]1)C(=O)N[C@H](C(N)=O)[C@@H](C)O`, for which the 50% inhibitory concentration (IC50) was > 1000 nM.

As for `CC[C@H](C)[C@H](NC(=O)[C@H](Cc1cnc[nH]1)NC(=O)[C@H](Cc1c[nH]c2ccccc12)NC(=O)[C@H](Cc1ccc(O)cc1)NC(=O)[C@H](CS)NC(=O)[C@H](CCCCN)NC(=O)[C@H](Cc1c[nH]c2ccccc12)NC(=O)[C@H](CC(=O)O)NC(=O)[C@H](CCCCN)NC(=O)[C@@H](N)CS)C(=O)N[C@@H](Cc1ccc(O)cc1)C(=O)NCC(N)=O` (H-CKDWKCYWHIYG-NH2), the IC50 is > 1000 nM.

In the case of `CC(=O)N[C@@H](CS)C(=O)N[C@@H](C)C(=O)N[C@@H](CC(=O)O)C(=O)N[C@@H](Cc1c[nH]c2ccccc12)C(=O)N[C@H](C(=O)N[C@@H](CS)C(=O)N[C@@H](Cc1ccc(O)cc1)C(=O)N[C@@H](Cc1c[nH]c2ccccc12)C(=O)N[C@@H](Cc1cnc[nH]1)C(=O)N[C@H](C(=O)N[C@@H](Cc1ccc(O)cc1)C(=O)NCC(N)=O)[C@@H](C)O)C(C)C`, the 50% inhibitory concentration (IC50) was < 500 nM.

Molecule `CC(=O)N[C@@H](CS)C(=O)N[C@@H](C)C(=O)N[C@@H](CC(=O)O)C(=O)N[C@@H](Cc1c[nH]c2ccccc12)C(=O)N[C@H](C(=O)N[C@H](C(=O)N[C@@H](Cc1ccc(O)cc1)C(=O)N[C@@H](Cc1c[nH]c2ccccc12)C(=O)N[C@@H](Cc1cnc[nH]1)C(=O)N[C@H](C(=O)N[C@@H](Cc1ccccc1)C(=O)NCC(N)=O)[C@@H](C)O)C(C)(C)S)C(C)C` returned an IC50 of 1000 to 10000 nM.

As to `CC(=O)N[C@@H](CS)C(=O)N[C@@H](C)C(=O)N[C@@H](CC(=O)O)C(=O)N[C@@H](Cc1c[nH]c2ccccc12)C(=O)N[C@@H](CCCCN)C(=O)N[C@@H](CS)C(=O)N[C@@H](Cc1ccc(O)cc1)C(=O)N[C@@H](Cc1c[nH]c2ccccc12)C(=O)N[C@@H](Cc1cnc[nH]1)C(=O)N[C@H](C(=O)N[C@@H](Cc1ccccc1)C(=O)NCC(=O)O)[C@@H](C)O`, the concentration for half-maximal inhibition (IC50) was > 1000 nM.
